In patent US20230087609A1, “USE OF A SOLUBLE GUANYLATE CYCLASE (sGC) STIMULATOR OR OF A COMBINATION OF A sGC STIMULATOR AND AN sGC ACTIVATOR FOR CONDITIONS WHEREIN THE HEME GROUP OF sGC IS OXIDIZED OR WHEREIN sGC IS DEFICIENT IN HEME” (Universiteit Maastricht, priority 2020, published 2023):
Substitutions are numbered along the chain they refer to. “Also recorded” adds a separate entry of the source.

Experiments:
[1] = biological target: T1, purified human sGC treated with ODQ (oxidized heme) (Homo sapiens, UniProt Q02153); test: sGC activity of purified human sGC treated with ODQ; type: biochemical; conditions: 10 μM ODQ, 0.3 μM BAY 58-2667 ± 10 μM BAY 41-2272 (FIG. 7A); ODQ concentration series with 30 μM Bay 41-2272 (FIG. 7B)
T1 construct: purchased EnzoLifeScience, Lörrach, Germany
T1 sequence (Q02153 1-619): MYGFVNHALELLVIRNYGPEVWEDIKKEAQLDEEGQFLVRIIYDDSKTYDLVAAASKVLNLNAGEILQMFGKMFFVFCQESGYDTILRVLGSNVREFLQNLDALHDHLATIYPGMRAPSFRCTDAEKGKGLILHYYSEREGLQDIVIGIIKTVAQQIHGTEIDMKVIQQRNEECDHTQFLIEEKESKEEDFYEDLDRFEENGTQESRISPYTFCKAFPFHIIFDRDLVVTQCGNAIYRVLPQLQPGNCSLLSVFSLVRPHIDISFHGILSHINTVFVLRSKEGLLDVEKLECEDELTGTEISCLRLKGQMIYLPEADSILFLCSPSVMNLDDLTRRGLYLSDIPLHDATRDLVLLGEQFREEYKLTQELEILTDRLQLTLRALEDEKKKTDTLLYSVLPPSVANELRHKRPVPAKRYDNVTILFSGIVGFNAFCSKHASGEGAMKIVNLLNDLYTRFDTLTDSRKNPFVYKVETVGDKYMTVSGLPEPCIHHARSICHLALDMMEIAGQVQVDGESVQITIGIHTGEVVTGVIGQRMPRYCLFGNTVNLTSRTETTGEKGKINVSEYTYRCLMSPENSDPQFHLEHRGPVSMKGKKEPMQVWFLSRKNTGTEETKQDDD
T1 sequence (Q02108 1-690 partner): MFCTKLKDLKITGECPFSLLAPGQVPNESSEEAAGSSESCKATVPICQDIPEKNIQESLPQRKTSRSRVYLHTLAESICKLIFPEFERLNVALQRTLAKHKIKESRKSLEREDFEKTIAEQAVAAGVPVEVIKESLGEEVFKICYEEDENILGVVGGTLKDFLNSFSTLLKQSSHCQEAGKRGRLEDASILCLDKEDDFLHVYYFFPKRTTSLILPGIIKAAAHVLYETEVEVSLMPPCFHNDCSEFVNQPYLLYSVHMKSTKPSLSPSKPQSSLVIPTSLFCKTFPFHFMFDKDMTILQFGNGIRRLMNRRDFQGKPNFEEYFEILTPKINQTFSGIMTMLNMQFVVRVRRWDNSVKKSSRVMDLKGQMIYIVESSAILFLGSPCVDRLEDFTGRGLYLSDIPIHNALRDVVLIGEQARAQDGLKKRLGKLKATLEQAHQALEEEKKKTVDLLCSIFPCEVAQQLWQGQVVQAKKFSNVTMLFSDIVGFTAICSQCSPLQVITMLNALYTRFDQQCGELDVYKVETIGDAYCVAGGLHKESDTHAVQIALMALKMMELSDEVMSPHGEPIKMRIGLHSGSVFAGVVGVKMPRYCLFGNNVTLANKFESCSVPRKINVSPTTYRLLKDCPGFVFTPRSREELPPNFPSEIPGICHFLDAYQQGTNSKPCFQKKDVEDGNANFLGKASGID

[2] = biological target: T2, human sGCa1 and mutant sGCβ1H105F (apo-sGC) in Sf9 cells (Homo sapiens, UniProt Q02153, H105F); test: cGMP accumulation in intact Sf9 cells expressing apo-sGC; type: cell-based; conditions: for cGMP formation, sGC stimulator combined with NO donor: 30 micromole/L Bay 41-2272 + 10 micromole/L DETA-NONOate (FIG. 12A, B); for cGMP formation, sGC stimulator only: 30 micromole/L Bay 41-2272 alone (FIG. 12A)
T2 construct: His tag; expressed in transfected cells; host or cells: Sf9 cells co-infected with baculoviruses
T2 sequence (Q02153 1-619 H105F): T1 sequence (Q02153 1-619) with H105F
T2 sequence (Q02108 1-690 partner): T1 sequence (Q02108 1-690 partner)
Protocol: Sf9 cells were co-infected with baculoviruses expressing human sGCa1 and mutant sGCβ1H105F. Forty-eight hours post-infection, the cells were treated with vehicle, NO donor, sGC stimulator, sGC activator or combination in 2 ml final volume of 10^6 cells per ml then the cells were incubated for 10 min at 27° C. The reaction was terminated by the addition of 0.1M of HCl, and cGMP was extracted on ice for 20 min. Cells were then sonicated to ensure complete lysis. The extract was then centrifuged and used for cGMP determination by an ELISA (Enzo Life Sciences).
Forty-eight hours post-infection, the cells were treated with vehicle, NO donor, sGC stimulator, sGC activator or combination in 2 ml final volume of 10^6 cells per ml and subsequently, the cells were incubated for 10 minutes at 27° C. The reaction was terminated by the addition of 0.1M of HCl, and cGMP was extracted on ice for 20 minutes. Cells were then sonicated to ensure complete lysis. The obtained cell extract was then centrifuged and used for cGMP determination by an ELISA. […] In the absence of any of the NO donor, the sGCs or the combination of these compounds, no cGMP synthesis is detected. It is now for the first time shown by the inventors that apo-sGC is still activatable even in the absence of an sGC activator known in the art. The presence of the sGCs facilitates NO binding to a secondary, heme-independent NO binding-site, and in addition, presence of an NO donor acts synergistically, when cGMP production is considered. Due to the invention, it is now made possible to treat patients with an sGCs, resulting in cGMP formation, under conditions wherein treatment with sGC activators has no effect at all or a too small effect, e.g. under conditions of ischemia, neonatal asphyxia, stroke, hypoxia, acute respiratory distress syndrome, asthma, oxidative (organ and/or tissue and/or cell) damage, etc. The invention provides a new treatment modality for these patients, which are often not sensitive (enough) for sGCa treatment. […] C.

`Nc1nc(-c2nn(Cc3ccccc3F)c3ncccc23)ncc1C1CC1` [BAY 41-2272, 5-cyclopropyl-2-[1-(2-fluoro-benzyl)-1H-pyrazolo[3,4-b]pyridin-3-yl]-pyrimidin-4-ylamine] was tested, and the “sGC activity of sGC with fully oxidized heme on addition of sGC stimulator” value [1] was “still activatable by potentiation”, the “cGMP formation, sGC stimulator combined with NO donor” value ([2]; listed as Bay 41-2272) was “synergistic increase in cGMP formation” and the “cGMP formation, sGC stimulator combined with NO donor” value ([2]; listed as Bay41-2272) was “more than double amount of cGMP; also recorded: synergistic increase in cGMP formation”. For the same molecule, the “cGMP formation, sGC stimulator only” value ([2]; listed as Bay 41-2272) was “increase in cGMP formation” and the “cGMP formation, sGC stimulator only” value ([2]; listed as Bay41-2272) was “resulted in cGMP production; also recorded: increase in cGMP formation”.
